Legend:
CHO-K1 cells [1] = experiment: comet assay on CHO-K1 cells in slide holder assembly; type: cell-based; conditions: CHO-K1 cells treated with 100 μM for one hour; imaged with ToxInsight IVT platform
Procedure: Exemplary comet assays were performed using the above devices and methods. For example, in one comet assay, comets were successfully generated and analyzed using CHO-K1 cells on a 96-well glass slide. To ensure that comets would be produced, half of the CHO-K1 cells were treated with 100 μM 9-aminoacridine for one hour. A 96-well glass slide was secured within a slide holder assembly and half of the slide was layered with the treated CHO-K1 cells while the other half was layered with untreated CHO-K1 cells. The cells were allowed to soak in a lysis solution and then an electrophoresis buffer while in the slide holder assembly. The cells were then electrophoresed while in the slide holder assembly and then imaged using the ToxInsight IVT platform.
In FIG. 11, the untreated CHO-K1 cells 342 are shown in columns 1-6 (i.e., the left half of the image) and the treated CHO-K1 cells 344 are shown in columns 7-12 (i.e., on the right half). […] In the sample comet assay, the ToxInsight® IVT Platform was used as the cell imaging system to scan 25 fields/well. Using the Comet.V4 BioApplication software developed by Cellomics Inc., 14,075 comets were automatically selected by the cell imaging system within a time period of 20 minutes, 29 seconds. […] This translates to over one million comets that could be analyzed per 24-hour day.

CHO-K1 cells [2] = experiment: comet assay of DNA repair over varied durations of time; type: cell-based; conditions: treated CHO-K1 cells layered onto wells for varied durations of time; FIG. 12
Procedure: In another sample comet assay, CHO-K1 cells were treated with 9-aminoacridine and the treated cells were layered onto select wells on the glass slide for varied durations of time. The cells were allowed to soak in a lysis solution and then an electrophoresis buffer while in the slide holder assembly. The cells were then electrophoresed while in the slide holder assembly and then imaged using the ToxInsight IVT Platform.

Nc1c2ccccc2nc2ccccc12 [9-aminoacridine]
comet formation (DNA damage) (CHO-K1 cells [1]): comets were formed and imaged on the treated cells
DNA repair quantified in comets (CHO-K1 cells [2]): time-dependent response of DNA repair
